According to US20240383910A1, “SMALL MOLECULE BTK DEGRADERS AND METHODS OF USE THEREOF” (Baylor College of Medicine, priority 2023, published 2024):

Legend:
[1] = target: T1, His-BTK (Homo sapiens, UniProt Q06187); experiment: TR-FRET competition binding assay with BTK-BODIPY tracer; conditions: TRFRET assay, up to 100 μM
T1 construct: purchased SignalChem B10-10H-10
Method: Panels a-b. […] Panel c. […] Panel d. […] Panel e. […] Panel f.
Time-resolved fluorescence resonance energy transfer (TR-FRET) assay was carried out to evaluate the binding of indicated compounds and BTK by competition with a BODIPY-FL labeled BTK tracer (See FIG. 1, BTK TR-FRET tracer). The assay was performed in 20 μL assay buffer (50 mM Tris, pH7.5, 0.1% Triton X-100, 0.01% BSA, and 1 mM DTT) with 0.3 nM Tb-anti-His (Cisbio, Cat. No. 61HI2TLA), 2 nM His-BTK (SignalChem, Cat. No. […] Unless specified otherwise, all assays were performed in triplicates. The assay mixtures were incubated at room temperature in the dark for 120 min, unless specified otherwise, and the signals were collected using a BioTek Synergy H1 microplate reader to measure the fluorescence emission ratio ([…]) of each well, using a 340-nm excitation filter, a 100-μs delay, and a 200-μs integration time. Raw data from the plate reader were used directly for analysis. The curve-fitting software GraphPad Prism 9 was used to generate graphs and curves and to determine IC50 values.
To measure the binding affinities between PROTACs and BTK, a time-resolved fluorescence resonance energy transfer (TR-FRET) competition binding assay was developed. A BTK tracer was synthesized by conjugating an ibrutinib-based reversible noncovalent binder with the BODIPY-FL dye (FIG. 1). […] In the presence of the BTK tracer, competition assays were performed to measure the binding affinities between BTK and its inhibitors and PROTACs. […] The very weak BTK binding affinities for PS-RC-1, PS-RC-2, PS-RC-3 and PS-RC-4 explain their minimal BTK degradation effects in cells and further support that the observed growth inhibitory effect of PS-RC-1 in Mino cells is unrelated to the BTK pathway.

[2] = target: T2, IKZF3 (Homo sapiens, UniProt Q96SW2+Q9UKT9); experiment: TMT-based quantitative proteomics in Mino cells, IKZF3; type: cell-based; conditions: 200 nM, 4 h
T2 construct: host or cells: Mino
Method: (§1) Panel a. […] Panel b. […] Panel c. […] Panel d-e. […] Panel g.
(§2) Two million of Mino cells were treated with DMSO or 200 nM of PS-2 for 4 hours in biological triplicates and cells were harvested by centrifugation (200×g, 4° C., 5 min). Lysis buffer (100 mM Triethylammonium bicarbonate (TEAB, Thermo Fisher Scientific, Cat. No. 90114), 2% SDS) was added to the cell pellets and homogenized with a microtip sonicator (Branson) to achieve a cell lysate with a protein concentration of ˜2 mg mL^−1. Protein concentration was determined using BCA assay (Pierce, Cat. No. 23225) and normalized to 1 mg mL^−1. One hundred μg of protein for each sample were reduced and alkylated with 10 mM Tris(2-carboxyethyl) phosphine hydrochloride (TCEP, Sigma, Cat. No. C4706) and 17 mM iodoacetamide (IAA, Sigma, Cat. No. 16125-5G), followed by digestion with trypsin (1:20, enzyme: protein, Thermo Fisher Scientific, Cat. No. 90058) for 16 h shaking at 37° C. […]
(§3) Next, tandem mass tagging (TMT)-based quantitative proteomic profiling was performed to evaluate the degradation specificity of PS-2. […] Quantitative proteomics employing TMT chemical labeling coupled with LC/MS/MS enabled the detection of >2,500 unique proteins without fractionation (FIG. 4f). […]

[3] = tested on: Mino cells; experiment: TMT-based quantitative proteomics in Mino cells, degradation specificity over the proteome; type: cell-based; conditions: 200 nM, 4 h, >2,500 proteins
Method: as §1, §2, §3

[4] = target: T3, BTK (Homo sapiens, UniProt Q06187); experiment: Western blotting for BTK in Mino cells; type: cell-based; set-up: host or cells: Mino; conditions: up to 1000 nM, 24 h, Western blot
Method: Mino cells were seeded into the wells of six-well plates at the density of 5×10^5 cells per mL in 2 mL of complete RPMI-1640 culture medium. After overnight adaptation, cells were treated with serially diluted compounds (from 1,000-1.6 nM, 5-fold dilution) for 24 hours. After treatment, whole cell lysates for immunoblotting were prepared by pelleting Mino cells at 4° C. and 200×g for 5 minutes. The resulting cell pellets were washed once with ice-cold PBS and lysed in 1×RIPA lysis buffer (Alfa Aesar, Cat. No. J62524) supplemented with protease and phosphatase inhibitor cocktail (Thermo Fisher, Cat. No. 78430). Lysates were centrifuged at 15,000×g for 10 min at 4° C. and protein concentrations were assessed using BCA assay (Pierce, Cat. No. 23225). Same amounts of protein (30 μg) for each sample were loaded onto sodium dodecyl sulfate-polyacrylamide gel, separated by electrophoresis (Bio-Rad) at 120 V for 1.5 h and transferred to PVDF membrane using a Transblot Turbo system (Bio-Rad). After blocking for 1 h at room temperature in 1% BSA-TBST, the membranes were immunoblotted with the specified primary antibodies at the dilution of 1:1000 in TBST (Cell Signaling Technology: anti-BTK Cat. No. 8547, anti-IKZF1 Cat. No. 14859, anti-IKZF3 Cat. No. 15103, anti-β-actin Cat. No. 4570, Proteintech: anti-GSPT1, Cat. No. 10763-1-AP) overnight at 4° C. and the HRP-conjugated secondary antibodies (Cell Signaling, Cat. No. 7074, 1:1000 in TBST) for 1 h at room temperature. Imaging was performed using the ECL Prime chemiluminescent Western blot detection reagents (Kindle Biosciences, Cat. No. R1100) by visualization of the blots with an Imager (Kindle Biosciences, Cat. No. D1001). All Western blots were subsequently processed and quantified with Imager software ImageJ and protein level was normalized to the B-actin loading controls.

[5] = target: T3, BTK; experiment: BTK ligand competition assay in Ramos cells (Western blotting for BTK); type: cell-based; set-up: host or cells: Ramos; conditions: 100 nM, 24 hours, Western blot
Method: Ramos cells were incubated overnight, and then the indicated compounds were added and incubated for 24 hours, followed by Western blotting for BTK degradation.
Ramos cells were incubated overnight, and then the indicated compounds were added and incubated for 24 hours, followed by Western blotting for BTK degradation (FIG. 7).

T3 sequence (Q06187 whole entry): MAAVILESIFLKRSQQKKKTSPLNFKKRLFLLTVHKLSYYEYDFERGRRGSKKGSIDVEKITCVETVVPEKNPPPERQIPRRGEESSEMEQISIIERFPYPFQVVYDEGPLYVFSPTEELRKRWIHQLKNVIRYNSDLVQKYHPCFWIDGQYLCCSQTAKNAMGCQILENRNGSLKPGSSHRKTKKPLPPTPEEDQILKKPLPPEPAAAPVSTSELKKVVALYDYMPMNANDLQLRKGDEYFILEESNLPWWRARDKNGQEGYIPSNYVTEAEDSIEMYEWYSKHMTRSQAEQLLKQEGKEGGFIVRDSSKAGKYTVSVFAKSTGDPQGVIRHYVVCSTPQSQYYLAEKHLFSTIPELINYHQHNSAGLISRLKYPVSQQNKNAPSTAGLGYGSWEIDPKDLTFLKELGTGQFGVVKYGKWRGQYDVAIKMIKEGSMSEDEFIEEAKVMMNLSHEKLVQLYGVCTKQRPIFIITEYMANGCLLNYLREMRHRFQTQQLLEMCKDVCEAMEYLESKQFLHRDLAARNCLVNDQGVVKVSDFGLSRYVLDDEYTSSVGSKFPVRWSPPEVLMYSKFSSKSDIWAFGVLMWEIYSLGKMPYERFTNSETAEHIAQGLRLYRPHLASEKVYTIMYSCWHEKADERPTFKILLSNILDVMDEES
T2 sequence (Q9UKT9 whole entry): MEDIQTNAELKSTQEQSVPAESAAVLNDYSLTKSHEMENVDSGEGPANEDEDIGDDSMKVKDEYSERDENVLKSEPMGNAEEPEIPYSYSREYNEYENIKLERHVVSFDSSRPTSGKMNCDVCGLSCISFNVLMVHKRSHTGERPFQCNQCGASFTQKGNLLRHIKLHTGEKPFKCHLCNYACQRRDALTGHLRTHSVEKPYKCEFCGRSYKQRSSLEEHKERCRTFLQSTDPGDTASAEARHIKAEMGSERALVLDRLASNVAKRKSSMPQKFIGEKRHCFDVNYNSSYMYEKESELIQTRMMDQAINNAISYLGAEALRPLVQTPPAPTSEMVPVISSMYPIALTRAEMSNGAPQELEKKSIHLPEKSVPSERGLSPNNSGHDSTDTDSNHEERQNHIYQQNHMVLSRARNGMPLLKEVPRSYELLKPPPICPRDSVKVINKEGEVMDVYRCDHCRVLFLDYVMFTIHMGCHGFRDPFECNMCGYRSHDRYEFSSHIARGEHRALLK
T2 sequence (Q96SW2 whole entry): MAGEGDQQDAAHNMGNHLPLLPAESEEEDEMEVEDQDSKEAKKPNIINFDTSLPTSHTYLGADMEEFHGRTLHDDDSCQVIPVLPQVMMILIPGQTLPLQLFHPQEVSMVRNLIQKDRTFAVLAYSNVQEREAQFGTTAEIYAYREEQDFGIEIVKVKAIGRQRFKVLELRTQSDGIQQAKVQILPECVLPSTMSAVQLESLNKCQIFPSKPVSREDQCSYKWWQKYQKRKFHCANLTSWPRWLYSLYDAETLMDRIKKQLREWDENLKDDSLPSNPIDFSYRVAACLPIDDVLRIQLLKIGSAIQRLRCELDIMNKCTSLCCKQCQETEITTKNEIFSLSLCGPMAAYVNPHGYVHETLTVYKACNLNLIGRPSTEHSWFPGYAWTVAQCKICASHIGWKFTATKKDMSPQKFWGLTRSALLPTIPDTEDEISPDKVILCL
T2 sequence (Q16531 whole entry partner): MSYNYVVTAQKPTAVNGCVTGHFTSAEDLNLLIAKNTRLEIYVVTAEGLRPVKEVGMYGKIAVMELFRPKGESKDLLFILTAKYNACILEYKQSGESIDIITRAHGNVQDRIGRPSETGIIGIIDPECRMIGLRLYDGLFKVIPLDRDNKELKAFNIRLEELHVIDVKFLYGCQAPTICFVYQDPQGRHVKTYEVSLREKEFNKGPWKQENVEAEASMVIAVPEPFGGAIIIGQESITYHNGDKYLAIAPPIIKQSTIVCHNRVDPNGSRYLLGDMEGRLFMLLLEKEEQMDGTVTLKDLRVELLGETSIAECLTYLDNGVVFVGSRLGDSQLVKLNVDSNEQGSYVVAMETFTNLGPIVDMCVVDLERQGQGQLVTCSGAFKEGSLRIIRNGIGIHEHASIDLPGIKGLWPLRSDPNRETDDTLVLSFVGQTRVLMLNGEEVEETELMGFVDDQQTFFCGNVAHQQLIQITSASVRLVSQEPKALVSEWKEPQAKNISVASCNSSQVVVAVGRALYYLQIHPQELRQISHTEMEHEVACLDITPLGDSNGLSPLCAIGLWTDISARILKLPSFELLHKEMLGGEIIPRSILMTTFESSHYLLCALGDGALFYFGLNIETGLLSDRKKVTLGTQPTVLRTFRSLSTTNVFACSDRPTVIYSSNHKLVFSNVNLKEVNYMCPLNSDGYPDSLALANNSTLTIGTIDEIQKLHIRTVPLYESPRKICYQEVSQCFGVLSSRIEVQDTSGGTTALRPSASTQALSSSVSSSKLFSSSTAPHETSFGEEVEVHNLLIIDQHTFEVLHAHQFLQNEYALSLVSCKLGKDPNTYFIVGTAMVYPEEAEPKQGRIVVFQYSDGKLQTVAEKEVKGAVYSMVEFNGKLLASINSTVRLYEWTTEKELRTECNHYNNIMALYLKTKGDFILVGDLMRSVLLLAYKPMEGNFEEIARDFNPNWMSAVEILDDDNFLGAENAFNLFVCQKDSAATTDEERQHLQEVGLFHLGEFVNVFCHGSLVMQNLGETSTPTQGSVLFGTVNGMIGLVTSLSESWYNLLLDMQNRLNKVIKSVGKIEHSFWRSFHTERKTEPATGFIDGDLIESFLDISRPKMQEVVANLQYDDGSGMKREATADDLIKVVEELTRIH
T1 sequence (Q06187 whole entry): as the sequence (Q06187 whole entry) above

O=C1CCC(N2C(=O)c3cccc(NCC(=O)N4CCN(c5ccc(Nc6nccc(Oc7ccccc7)n6)cc5)CC4)c3C2=O)C(=O)N1 (centres unmarked) [PS-2, 2-(2,6-Dioxopiperidin-3-yl)-4-((2-oxo-2-(4-(4-((4-phenoxypyrimidin-2-yl)amino)phenyl)piperazin-1-yl)ethyl)amino)isoindoline-1,3-dione]
binding to BTK (result in words) [1]: almost no binding to BTK | degradation of IKZF3 [2]: > 60% | other proteins downregulated by at least 25% with statistical significance [3]: No other proteins are downregulated | BTK degradation (result in words) [4]: potently induces BTK degradation | BTK degradation at 100 nM [5]: Most BTK protein was degraded
